The term Ki denotes a measure of affinity in units of concentration, obtained from inhibition or displacement. A higher Ki goes with weaker binding. What is called EC50 is the midpoint of the concentration-response curve.

Each structure is given as a SMILES string.

The target of one assay is Bcl-2 protein (Homo sapiens (Human), UniProt P10415). Kind of assay: TR-FRET binding assay, Bcl-2. The settings on record: F-Bak peptide probe, GST-Bcl-2. How it is done: (§1) Determination of the utility of compounds having Formula (I) or Formula (II) as binders to and inhibitors of anti-apoptotic Bcl-2 proteins was performed using the Time Resolved-Fluorescence Resonance Energy Transfer (TR-FRET) Assay. Tb-anti-GST antibody was purchased from Invitrogen (Catalog No. PV4216).
Sequence of Bcl-2 protein (P10415 other isoform, or with tags, fused parts or gaps): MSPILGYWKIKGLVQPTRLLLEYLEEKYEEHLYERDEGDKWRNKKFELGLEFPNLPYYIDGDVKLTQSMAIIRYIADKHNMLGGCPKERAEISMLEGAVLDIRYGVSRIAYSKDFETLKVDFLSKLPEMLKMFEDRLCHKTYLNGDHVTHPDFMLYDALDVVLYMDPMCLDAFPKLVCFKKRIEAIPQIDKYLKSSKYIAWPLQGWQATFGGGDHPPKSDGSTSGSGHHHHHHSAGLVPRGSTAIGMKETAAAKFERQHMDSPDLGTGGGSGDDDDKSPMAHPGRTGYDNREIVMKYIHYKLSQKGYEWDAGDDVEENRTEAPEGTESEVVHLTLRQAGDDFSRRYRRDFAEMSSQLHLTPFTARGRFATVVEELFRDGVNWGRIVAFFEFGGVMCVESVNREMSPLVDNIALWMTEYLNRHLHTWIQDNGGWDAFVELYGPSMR
A Bcl-2 human encoding sequence was cloned into a pET41A vector (Novagen). The protein was expressed with E. coli. BL21(DE3)-T1R strain in OETB autoinduction medium at 30° C. for 25 hours. The cell pellets were resuspended in lysis buffer (50 mM Tris, 140 mM NaCl, 1 mM DTT, 10% Glycerol, 2 mM MgCl2, pH 7.3) and lysed with Microfluidizer. The Bcl-2 protein in clarified cell-lysate was purified with affinity chromatography (GST and Ni-NTA). The eluate was loaded onto a Superdex 75 column and further purified with a Q Sepharose column. The protein was purified on a phenyl hydrophobic interaction column and dialyzed in the storage buffer (50 mM Tris, 50 mM NaCl, 2 mM DTT, pH 7.5) and stored at −80° C.
(§2) […] of a protein (Bcl-2 or Bcl-xL)/probe/antibody mixture pre-equilibrated for one hour in assay buffer was added to each well at final concentrations listed in Table 6 below.
(§3) The samples were then mixed on a shaker for 1 minute and equilibrated for an additional 3 hours at room temperature. For each assay plate, a probe/antibody and protein/antibody/probe mixture were included as a negative and a positive control, respectively. Fluorescence was measured on the Envision (Perkin Elmer) using a 340/35 nm excitation filter and 520/525 (F-Bak) and 495/510 nm (Tb-labeled anti-GST antibody) emission filters. Inhibition constants (Ki) were determined using Wang's equation (Wang FEBS Lett. 1995, 360, 111-114). The TR-FRET assay can be performed in the presence of varying concentrations of human serum (HS) to determine apparent half maximal inhibitory concentration (IC50) after HS protein binding.
(§4) Inhibition constants were determined using Wang's equation (Wang FEBS Lett. 1995, 360:111-4).
For orientation: TR-FRET usually uses a lanthanide donor and a delayed reading to cut background.

In a further assay the target is Bcl-xL protein (Homo sapiens (Human), UniProt Q07817). Kind of assay: TR-FRET binding assay, Bcl-xL. To be noted: F-Bak peptide probe. Here is the method:
as §1
A human Bcl-xL encoding sequence was cloned into a pET41A vector. The protein was expressed with E. coli. BL21(DE3)-T1R strain in OETB autoinduction medium at 30° C. for 25 hours. The cell pellets were resuspended in lysis buffer (50 mM Tris, 140 mM NaCl, 1 mM DTT, 10% Glycerol, 0.1% Triton X-100, pH 7.5) and lysed with Microfluidizer. The Bcl-xL protein in clarified cell-lysate was purified with GST affinity chromatography. The eluate was dialyzed in the storage buffer (1×PBS, 10% Glycerol, 2 mM DTT, 1 mM Sodium Azide, pH 7.4) and stored at −80° C.
as §2, §3, §4

The test system of another assay is Molt-4 cells. Kind of assay: Cell viability counter screen (CellTiter-Glo) in Molt-4 cells. It counts as cell-based. To be noted: 24 hours, 10% Human Serum. Here is the method: The acute lymphoblastic leukemia (ALL) human cell line RS4;11 (ATCC, Manassas VA) was used as the primary human cell line to assess the cellular activity of compound of the present Examples in vitro and their efficacy in vivo. […] The acute lymphoblastic leukemia cell line Molt-4, which is derived from immature T-lymphoid cells (T-ALL), was used as a counter screen assay.
3000 Cells (0.1×10^6/mL) were seeded in each well of 384-well plate and were treated for 24 hours in a humidified chamber with 5% CO2. Cell viability was determined by CellTiter-Glo as described by the manufacturer's instructions (Promega Corporation, Madison, WI, USA).
On the technique in general: A counterscreen serves to expose hits that act by an unwanted route or on another target.

Sequence of Bcl-xL protein (Q07817 other isoform, or with tags, fused parts or gaps): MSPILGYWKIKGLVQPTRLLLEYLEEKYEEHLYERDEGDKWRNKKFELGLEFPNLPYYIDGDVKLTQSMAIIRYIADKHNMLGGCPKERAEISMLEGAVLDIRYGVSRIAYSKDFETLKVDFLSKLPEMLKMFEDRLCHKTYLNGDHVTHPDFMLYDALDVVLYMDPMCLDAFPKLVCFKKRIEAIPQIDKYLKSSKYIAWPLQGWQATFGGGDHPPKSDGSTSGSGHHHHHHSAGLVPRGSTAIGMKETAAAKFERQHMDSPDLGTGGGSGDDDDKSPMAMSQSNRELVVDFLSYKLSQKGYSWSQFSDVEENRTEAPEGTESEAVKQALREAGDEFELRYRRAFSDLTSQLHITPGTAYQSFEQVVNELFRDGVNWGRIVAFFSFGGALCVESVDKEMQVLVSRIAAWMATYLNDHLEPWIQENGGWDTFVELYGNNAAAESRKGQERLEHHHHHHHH

In the case of `C[C@H]1CCC(CNc2ccc(S(=O)(=O)NC(=O)c3ccc(N4CCN5CC6=C(c7ccc(Cl)cc7)CC(C)(C)C[C@H]6OCCCOCC5C4)cc3N3CCCOc4nc5[nH]ccc5cc43)cc2[N+](=O)[O-])OC1` (stereo partly drawn) [Example 23, 4-((4aS,10aR)-14-(4-chlorophenyl)-12,12-dimethyl-1,2,4a,5,8,9,10a,11,13,15-decahydro-7H,12H-benzo[f]pyrazino[2,1-c][1,8]dioxa[4]azacycloundecin-3(4H)-yl)-2-(3,4-dihydro-2H-pyrrolo[3′,2′:5,6]pyrido[2,3-b][1,4]oxazepin-1(7H)-yl)-N-((4-((((2R,5S)-5-methyltetrahydro-2H-pyran-2-yl)methyl)amino)-3-nitrophenyl)sulfonyl)benzamide], the figures for the Ki at Bcl-2 protein and at Bcl-xL protein were 0.634 nM and 29.7 nM, respectively. Further, the EC50 with Molt-4 cells is > 10000 nM.

As for `COC1(CNc2ccc(S(=O)(=O)NC(=O)c3ccc(N4CCN5CC6=C(c7ccc(Cl)cc7)CC(C)(C)C[C@H]6OCCCOC[C@@H]5C4)cc3N3CCCOc4nc5[nH]ccc5cc43)cc2[N+](=O)[O-])CCOCC1` [Example 26, 4-((4aS,10aR)-14-(4-chlorophenyl)-12,12-dimethyl-1,2,4a,5,8,9,10a,11,13,15-decahydro-7H,12H-benzo[f]pyrazino[2,1-c][1,8]dioxa[4]azacycloundecin-3(4H)-yl)-2-(3,4-dihydro-2H-pyrrolo[3′,2′:5,6]pyrido[2,3-b][1,4]oxazepin-1(7H)-yl)-N-((4-(((4-methoxytetrahydro-2H-pyran-4-yl)methyl)amino)-3-nitrophenyl)sulfonyl)benzamide], the inhibition constant (Ki) at Bcl-2 protein worked out at 2.09 nM; at Bcl-xL protein, 40.3 nM. Also, in the assay with Molt-4 cells, the 50% effective concentration (EC50) is > 10000 nM.

Turning to `CC1(C)CC(c2ccc(Cl)cc2)=C2CN3CCN(c4ccc(C(=O)NS(=O)(=O)c5ccc(NC[C@@H]6CC[C@@H](O)CO6)c([N+](=O)[O-])c5)c(N5CCCOc6nc7[nH]ccc7cc65)c4)C[C@H]3COCCCO[C@@H]2C1` [Example 27, 4-((4aS,10aR)-14-(4-chlorophenyl)-12,12-dimethyl-1,2,4a,5,8,9,10a,11,13,15-decahydro-7H,12H-benzo[f]pyrazino[2,1-c][1,8]dioxa[4]azacycloundecin-3(4H)-yl)-2-(3,4-dihydro-2H-pyrrolo[3′,2′:5,6]pyrido[2,3-b][1,4]oxazepin-1(7H)-yl)-N-((4-((((2S,5R)-5-hydroxytetrahydro-2H-pyran-2-yl)methyl)amino)-3-nitrophenyl)sulfonyl)benzamide], the Ki at Bcl-2 protein turned out to be 1.72 nM; on Bcl-xL protein it was 7.41 nM.

In the case of `COC1CO[C@H](CNc2ccc(S(=O)(=O)NC(=O)c3ccc(N4CCN5CC6=C(c7ccc(Cl)cc7)CC(C)(C)C[C@H]6OCCCOC[C@@H]5C4)cc3N3CCCOc4nc5[nH]ccc5cc43)cc2[N+](=O)[O-])C1` (stereo partly drawn) [Example 29, 4-((4aS,10aR)-14-(4-chlorophenyl)-12,12-dimethyl-1,2,4a,5,8,9,10a,11,13,15-decahydro-7H,12H-benzo[f]pyrazino[2,1-c][1,8]dioxa[4]azacycloundecin-3(4H)-yl)-2-(3,4-dihydro-2H-pyrrolo[3′,2′:5,6]pyrido[2,3-b][1,4]oxazepin-1(7H)-yl)-N-((4-((((2S)-4-methoxytetrahydrofuran-2-yl)methyl)amino)-3-nitrophenyl)sulfonyl)benzamide], the Ki stood at 2.59 nM at Bcl-2 protein and 22.5 nM on Bcl-xL protein.

As for `CC1(C)CC(c2ccc(Cl)cc2)=C2CN3CCN(c4ccc(C(=O)NS(=O)(=O)c5ccc(NC[C@H]6CC[C@](C)(O)CC6)c([N+](=O)[O-])c5)c(N5CCCOc6nc7[nH]ccc7cc65)c4)C[C@H]3COCCCO[C@@H]2C1` [Example 32, 4-((4aS,10aR)-14-(4-chlorophenyl)-12,12-dimethyl-1,2,4a,5,8,9,10a,11,13,15-decahydro-7H,12H-benzo[f]pyrazino[2,1-c][1,8]dioxa[4]azacycloundecin-3(4H)-yl)-2-(3,4-dihydro-2H-pyrrolo[3′,2′:5,6]pyrido[2,3-b][1,4]oxazepin-1(7H)-yl)-N-((4-((((1r,4r)-4-hydroxy-4-methylcyclohexyl)methyl)amino)-3-nitrophenyl)sulfonyl)benzamide], the Ki was found to be 0.397 nM at Bcl-2 protein and 15.8 nM at Bcl-xL protein.

In the case of `COCCO[C@H]1CC[C@H](CNc2ccc(S(=O)(=O)NC(=O)c3ccc(N4CCN5CC6=C(c7ccc(Cl)cc7)CC(C)(C)C[C@H]6OCCCOC[C@@H]5C4)cc3N3CCCOc4nc5[nH]ccc5cc43)cc2[N+](=O)[O-])OC1` [Example 35, 4-((4aS,10aR)-14-(4-chlorophenyl)-12,12-dimethyl-1,2,4a,5,8,9,10a,11,13,15-decahydro-7H,12H-benzo[f]pyrazino[2,1-c][1,8]dioxa[4]azacycloundecin-3(4H)-yl)-2-(3,4-dihydro-2H-pyrrolo[3′,2′:5,6]pyrido[2,3-b][1,4]oxazepin-1(7H)-yl)-N-((4-((((2R,5S)-5-(2-methoxyethoxy)tetrahydro-2H-pyran-2-yl)methyl)amino)-3-nitrophenyl)sulfonyl)benzamide], the Ki at Bcl-2 protein was found to be 0.0891 nM; at Bcl-xL protein it was 23.1 nM.

Consider `CC1(C)CC(c2ccc(Cl)cc2)=C2CN3CCN(c4ccc(C(=O)NS(=O)(=O)c5cnc(OC[C@H]6CC[C@](C)(O)CC6)c(Cl)c5)c(N5CCCOc6nc7[nH]ccc7cc65)c4)C[C@H]3COCCCO[C@@H]2C1` [Example 42, N-((5-chloro-6-(((1r,4r)-4-hydroxy-4-methylcyclohexyl)methoxy)pyridin-3-yl)sulfonyl)-4-((4aS,10aR)-14-(4-chlorophenyl)-12,12-dimethyl-1,2,4a,5,8,9,10a,11,13,15-decahydro-7H,12H-benzo[f]pyrazino[2,1-c][1,8]dioxa[4]azacycloundecin-3(4H)-yl)-2-(3,4-dihydro-2H-pyrrolo[3′,2′:5,6]pyrido[2,3-b][1,4]oxazepin-1(7H)-yl)benzamide], for which, in the assay with Molt-4 cells, the EC50 was > 10000 nM.

In the case of `CC1(C)CC(c2ccc(Cl)cc2)=C2CN3CCN(c4ccc(C(=O)NS(=O)(=O)c5ccc(OC[C@H]6CC[C@](C)(O)CC6)c(Cl)c5)c(N5CCCOc6nc7[nH]ccc7cc65)c4)C[C@H]3COCCCO[C@@H]2C1` [Example 43, N-((3-chloro-4-(((1r,4r)-4-hydroxy-4-methylcyclohexyl)methoxy)phenyl)sulfonyl)-4-((4aS,10aR)-14-(4-chlorophenyl)-12,12-dimethyl-1,2,4a,5,8,9,10a,11,13,15-decahydro-7H,12H-benzo[f]pyrazino[2,1-c][1,8]dioxa[4]azacycloundecin-3(4H)-yl)-2-(3,4-dihydro-2H-pyrrolo[3′,2′:5,6]pyrido[2,3-b][1,4]oxazepin-1(7H)-yl)benzamide], in the assay with Molt-4 cells, the EC50 is > 10000 nM.

In the case of `CC1(C)CC(c2ccc(Cl)cc2)=C2CN3CCN(c4ccc(C(=O)NS(=O)(=O)c5cnc(OC[C@H]6CC[C@@](C)(O)CC6)c(Cl)c5)c(N5CCCOc6nc7[nH]ccc7cc65)c4)C[C@H]3COCCCO[C@@H]2C1` [Example 50, N-((5-chloro-6-(((1s,4s)-4-hydroxy-4-methylcyclohexyl)methoxy)pyridin-3-yl)sulfonyl)-4-((4aS,10aR)-14-(4-chlorophenyl)-12,12-dimethyl-1,2,4a,5,8,9,10a,11,13,15-decahydro-7H,12H-benzo[f]pyrazino[2,1-c][1,8]dioxa[4]azacycloundecin-3(4H)-yl)-2-(3,4-dihydro-2H-pyrrolo[3′,2′:5,6]pyrido[2,3-b][1,4]oxazepin-1(7H)-yl)benzamide], the EC50 in the assay with Molt-4 cells is > 10000 nM.

The values are drawn from patent publication US20250066388A1, “1,3,4,7-TETRAHYDRO-2H-PYRROLO[3',2':5,6]PYRIDO[2,3-B][1,4]OXAZEPINE BCL-2 INHIBITORS” (AbbVie Inc., priority 2022, published 2025).
